Nine compounds from US6903125B2, “Tetrahydro-2H-thiopyran-4-carboxamide derivative” (Yamanouchi Pharmaceutical Co., Ltd., priority 2003, dated 2005) can be followed below.

For one assay, the system named is HSV-1 (strain KOS). In words: Anti-HSV-1 activity assay (MTT, MRC-5 cells). The assay is classed as cell-based. Particulars: HSV-1 strain KOS in MRC-5 cells, 5 days culture, read-out: EC50 value (suppression of cellular death of MRC-5 cells via HSV-1 replication). The protocol:
10,000 MRC-5 cells were inoculated and cultured in a 96-well microtiter plate, using the growth culture medium in 5% CO2 at 37° C. for 4 to 5 days until a monolayer was formed. After the cells were washed with the maintenance culture medium, 100 μl of the maintenance culture medium dissolving therein an appropriate concentration of a test reagent was added to each well. Immediately after the test drug was added, an HSV-1 (strain KOS) solution was inoculated at 50 TCID50 (50% tissue culture infectious dose)/100 μl. After the cells were cultured in 5% CO2 at 37° C. for 5 days, 20 μl of MTT solution [3-(4,5-dimethyl-2-thiazolyl)-2,5-diphenyl-2H-tetrazolium bromide; Sigma] (diluted with PBS to 7.5 mg/ml) was added to each well, for another 24-hour incubation. After the culture medium was discarded, 100 μl of a solvent (prepared by adding 10% (v/v) Triton X 100 and 0.4% hydrochloric acid to isopropanol) was added to each well, to solubilize the generated formazan. The absorbance at 540 nm or 690 nm was measured with a microplate reader. Based on the suppression ratio (%) of the cellular death of the MRC-5 cell via HSV-1 replication, the EC50 value of the test drug was calculated.

The test system of another assay is VZV (strain CaQu). In words: Anti-VZV activity assay (plaque reduction in HEF cells). The assay is classed as cell-based, varicella zoster virus. On the procedure:
This experiment was carried out based on the method described by Shigeta S., The Journal of Infectious Diseases, 147, 3, 576-584 (1983). Briefly, 10,000 human embryonic fibroblast (HEF) cells were inoculated in a 96-well microtiter plate, using a growth culture medium [Eagle MEM (Nissui) supplemented with 10% (v/v) fetal bovine serum (FBS; Sigma)], for culturing in 5% CO2 at 37° C. for 4 days until a monolayer was formed. After the cells were washed with a maintenance culture medium (MEM supplemented with 2% FBS), VZV (strain CaQu) preliminarily diluted to 20 to 30 pfu/100 μl with the maintenance culture medium was inoculated at 100 μl/well. The plate was centrifuged at 2,000 rpm at ambient temperature for 20 minutes and was then incubated in 5% CO2 at 37° C. for 3 hours, for infection with VZV. After the plate was washed three times with the maintenance culture medium, 100 μl of a test drug diluted to an appropriate concentration with the maintenance culture medium was added to each well. After the cells were cultured in 5% CO2 at 37° C. for 3 to 4 days, 10% formalin/PBS was added at 100 μl/well to fix the cells for 2 to 3 hours. After discarding the fixing solution and culture supernatant and subsequently washing the plate with water, a staining solution (0.025% Crystal Violet) was added at 50 μl/well for staining for 2 to 3 minutes, and then, the plate was washed with water and dried at 37° C. Cellular death is induced in the HEF cells infected with VZV, so that plaques of the dead cells are formed in the monolayer of the HEF cells.

A further assay has as its system HSV-1 strain WT-51. The experiment in a line: Cutaneously HSV-1-infected hairless mice model. Format: in vivo, hairless mice [HR-1]. As to conditions: oral, methyl cellulose suspension, 10 mg/kg twice daily for 5 days; from AUC of mean composite disease score over 17 days. The protocol: Female hairless mice [HR-1, 7 weeks of age] were infected with a virus suspension containing HSV-1 strain WT-51 (1.5×10^4 PFU/15 μl) on the lateral side of the body, which had scratched with a needle, while anesthetized with diethyl ether, as previously described by H. Machida et al. [Antiviral Res., 1992, 17, 133-143]. Tested compounds were administered orally as a methyl cellulose suspension, except for compounds marked with asterisk which were dissolved in 20% Cremophor EL and 20% polyethylene glycol, starting at 3 hours after the infection, and then at a dose of 10 mg/kg twice daily for a period of 5 days. Hairless mice were inspected daily and disease severity was determined using the following criteria: • Score 0: no signs of infection. • Score 1: localized, barely perceptible small vesicles. • Score 2: slight vesicle spread. • Score 3: large patches of vesicles formed. • Score 4: zosteriform vesicles. • Score 5: large patches of ulcers formed. • Score 6: zosteriform with severe large ulcers. • Score 7: hind limb paralysis or death.
The zosteriform skin lesion and neurological scores for each animal were combined to produce a composite score. The mean composite score was used to represent the disease in each study group. The disease course was measured for 17 days and the extent of the disease was represented by the area under the curve (AUC) of the mean daily composite disease score each day after viral inoculation. The inhibitory activities of tested compounds were calculated using the AUCs.

The mark [1] stands for this setting: Human alphaherpesvirus 1, MRC5, 120 h.
Setting [2] is: Human alphaherpesvirus 3, read-out: EC50 value (concentration to inhibit 50% of the plaques), plaque count after 3 to 4 days.

Read-outs that look alike come from different tables or passages of the source.

Regarding `Cc1cccc(C)c1N(CC(=O)Nc1ccc(-c2cocn2)cc1)C(=O)C1CCS(=O)(=O)CC1` [Example 1, N-(2,6-dimethylphenyl)-N-(2-{[4-(1,3-oxazol-4-yl)phenyl]amino}-2-oxoethyl)tetrahydro-2H-thiopyran-4-carboxamide 1,1-dioxide], the EC50 in the assay with HSV-1 (strain KOS) (setting [1]) and with VZV (strain CaQu) (setting [2]) was 75 nM throughout.

For the compound `Cc1ccc(N(CC(=O)Nc2ccc(-c3cocn3)cc2)C(=O)C2CCS(=O)(=O)CC2)cc1` [Example 2, N-(4-methylphenyl)-N-(2-{[4-(1,3-oxazol-4-yl)phenyl]amino}-2-oxoethyl)tetrahydro-2H-thiopyran-4-carboxamide 1,1-dioxide], the “Inhibitory activity (%)” value with HSV-1 strain WT-51 was 85%.

`O=C(CN(C(=O)C1CCS(=O)(=O)CC1)c1ccc2c(c1)CCC2)Nc1ccc(-c2cocn2)cc1` [Example 11]: the EC50 turned out to be 40 nM with HSV-1 (strain KOS) and 60 nM in the assay on VZV (strain CaQu) (read-out: EC50 value (concentration to inhibit 50% of the plaques), plaque count after 3 to 4 days). Also, the “Inhibitory activity (%)” value with HSV-1 strain WT-51 amounted to 92%.

Take `Cc1cc(N(CC(=O)Nc2ccc(-c3cocn3)cc2)C(=O)C2CCS(=O)(=O)CC2)ccc1Cl` [Example 13, N-(4-chloro-3-methylphenyl)-N-(2-{[4-(1,3-oxazol-4-yl)phenyl]amino}-2-oxoethyl)tetrahydro-2H-thiopyran-4-carboxamide 1,1-dioxide]: the EC50 in the assay with HSV-1 (strain KOS) (setting [1]) is 6 nM; in the assay with VZV (strain CaQu) (setting [2]) it was 33 nM.

For the compound `Cc1cccc(N(CC(=O)Nc2ccc(-c3ncon3)cc2)C(=O)C2CCS(=O)(=O)CC2)c1C` [Example 24, N-(2,3-dimethylphenyl)-N-(2-{[4-(1,2,4-oxadiazol-3-yl)phenyl]amino}-2-oxoethyl)tetrahydro-2H-thiopyran-4-carboxamide 1,1-dioxide], the “Inhibitory activity (%)” value in the assay with HSV-1 strain WT-51 is given as 69%.

Consider `Cc1cccc(C)c1N(CC(=O)Nc1ccc(-c2ncon2)cc1)C(=O)C1CCS(=O)(=O)CC1` [Example 27, N-(2,6-dimethylphenyl)-N-(2-{[4-(1,2,4-oxadiazol-3-yl)phenyl]amino}-2-oxoethyl)tetrahydro-2H-thiopyran-4-carboxamide 1,1-dioxide], for which the results for the EC50 in the assay with HSV-1 (strain KOS) (setting [1]) and with VZV (strain CaQu) (setting [2]) were 60 nM and 100 nM, respectively. In the assay on HSV-1 strain WT-51, the “Inhibitory activity (%)” value is given as 86%.

Take `Cc1cc(N(CC(=O)Nc2ccc(-c3ncon3)cc2)C(=O)C2CCS(=O)(=O)CC2)ccc1Cl` [Example 37, N-(4-chloro-3-methylphenyl)-N-(2-{[4-(1,2,4-oxadiazol-3-yl)phenyl]amino}-2-oxoethyl)tetrahydro-2H-thiopyran-4-carboxamide 1,1-dioxide]: the EC50 with HSV-1 (strain KOS) (setting [1]) turned out to be 26 nM; in the assay with VZV (strain CaQu) (setting [2]) it was 95 nM.

On to `Cc1ccc(N(CC(=O)Nc2ccc(-c3ncon3)cc2)C(=O)C2CCS(=O)(=O)CC2)c(C)c1F` [Example 39, N-(3-fluoro-2,4-dimethylphenyl)-N-(2-{[4-(1,2,4-oxadiazol-3-yl)phenyl]amino}-2-oxoethyl)tetrahydro-2H-thiopyran-4-carboxamide 1,1-dioxide], for which the EC50 was 29 nM with HSV-1 (strain KOS) (setting [1]) and 82 nM with VZV (strain CaQu) (setting [2]).

On to `Nc1nc2c(ncn2COCCO)c(=O)[nH]1` [acyclovir, reference compound], for which the EC50 in the assay with HSV-1 (strain KOS) (setting [1]) is 480 nM; in the assay with VZV (strain CaQu) (setting [2]) it was 3400 nM.
